Columns and labels:
K18/Y310W = experiment: Tryptophan fluorescence inhibition assay, K18/Y310W; assay type: biochemical, human; conditions: 60 μM compound
Text: (§1) In order to exclude a possible distortion of the data by the dye the results of the ThS assays can be confirmed by a tryptophan fluorescence assay (Li et al., 2002). It allows the detection of the molecular environment of a tryptophan introduced instead of tyrosine 310 whose emission maximum is sensitive to the burial in a more hydrophobic surrounding upon PHF formation. Therefore the mutants K19/Y310W (FIG. 1I) and K18/Y310W (FIG. 1H) that contain a single tryptophan within the core of the PHF structure were created. In the soluble protein the emission maximum lies at ˜354 nm, whereas it shifts to 340 nm upon PHF formation (FIG. 3A, compare first and second entry). The emission peak can be shifted back by incubation at high concentrations of GuHCl which is due to the disassembly of the PHFs (FIG. 3A, fourth entry).
(§2) The fluorescence experiments were performed on a Spex Fluoromax spectrophotometer (Polytec, Waldbronn, Germany) using 3 mm×3 mm micro cuvettes from Hellma (Mühlheim, Germany) with 20 μl sample volumes. A tryptophan emission spectrum scans from 300 to 450 nm at fixed excitation wavelength of 290 nm. The slit widths were 5 nm, the integration time was 0.25 second, and the photomultiplier voltage was 950 V. For fluorescence inhibition assay, 60 μM compounds were incubated with K19/Y310W construct (10 μM) or K18/ΔK280/Y310W and heparin (2.5 μM) in PBS, pH 7.4 three days at 37° C.
In the Trp fluorescence assay the inhibition of PHF assembly becomes apparent if the emission maximum of Trp310 remains higher than that of the control without any compound, because Trp310 remains in a more solvent-accessible hydrophilic environment. The three repeat tau construct K19 (at 10 μM) was prevented from polymerisation by about 90% by the presence of all compounds at a concentration, of 60 μM (FIG. 3A, note that entries 5-9 retain their values around 354 nm, similar to the control #1). […] The internal ranking stays roughly the same as with K18; PHF005 (#9) is the best, PHF016 (#8) the worst inhibitor. […] The apparent degrees of inhibition differ somewhat between the ThS fluorescence and the intrinsic Trp fluorescence assays, but this may be due to the different origins of the signal. In the ThS assay the dye has to bind to the filaments, which requires a minimal length of the fibres. The tryptophan fluorescence assay depends on the local surrounding of the residue and is therefore less dependent on the length of the filaments.
(A-C) fluorescence emission maximum of the single tryptophan W310 inserted by site-directed mutagenesis into tau constructs K19 (FIG. 3A), K18 (FIG. 3B) and K18/ΔK280 (FIG. 3C). Fully solvent-accessible Trp has an emission maximum at ˜355 nm, a blue-shift to lower wavelengths is an indicator of PHF aggregation. […]

K18/ΔK280/Y310W = experiment: Tryptophan fluorescence inhibition assay, K18/ΔK280/Y310W; assay type: biochemical, human; conditions: 60 μM compound
Text: as §1, with “The emission peak can be shifted back by incubation at high concentrations of GuHCl which is due to the disassembly of the PHFs (FIG. 3A, fourth entry).” left out
as §2, with “A tryptophan emission spectrum scans from 300 to 450 nm at fixed excitation wavelength of 290 nm.” left out, “C. […]” for “C.”
(A-C) fluorescence emission maximum of the single tryptophan W310 inserted by site-directed mutagenesis into tau constructs K19 (FIG. 3A), K18 (FIG. 3B) and K18/ΔK280 (FIG. 3C). […]

Aβ1-40 fibrils = molecular target: T1, Aβ1-40 fibrils (Homo sapiens, UniProt P05067); experiment: Disassembly of pre-formed Aβ fibrils (thioflavine T); assay type: biochemical; conditions: 60 μM compound, 10 μM Aβ1-40
T1 construct: Commercial human Aβ1-40 was obtained from Calbiochem; purchased Calbiochem
Procedure: Besides the activity of the compounds towards tau fibres, their specificity is an important issue, i.e. the ability to discriminate between different types of aggregates. Therefore, an analysis of the influence of the compounds (60 μM) on amyloid fibrils made from the Aβ1-40 peptide, both in terms of inhibition of de novo filament formation and depolymerisation was performed (FIGS. 8A-B). These fibres are also abundant in Alzheimer brain and contain a core of cross-β-structure, but are located outside the cells, in contrast to the intracellular PHFs.
Commercial human Aβ1-40 was obtained from Calbiochem (Schwalbach, Germany) and stored at −20° C. The AD peptide was routinely dissolved in 100% DMSO to obtain a 2 mM stock solution, which was subsequently stored frozen at −20° C. […] For analysis 5 μl of this solution were added to 45 μl 10 mM phosphate buffer containing 6 μM thioflavine T, pH 6.0, after 30 minutes incubation at room temperature the fluorescence was measured at 504 nm emission by an excitation of 409 nm. To correlate fibril morphology with the fluorescence signal, aliquots of the Aβ1-40 solutions were simultaneously prepared for electron microscopy. […]

K19 PHFs = molecular target: T2, K19 PHFs (Homo sapiens, UniProt P10636); experiment: Depolymerisation of K19 PHFs at prolonged incubation times; assay type: biochemical; conditions: 0.5 μM compound, after 12 hours
T2 construct: construct K19 containing three repeats; made in house; host or cells: E. coli
Procedure: Untreated controls were measured in parallel and subtracted as background.

T2 sequence (P10636 with tags, fused parts or gaps isoform P10636-2 limits assumed): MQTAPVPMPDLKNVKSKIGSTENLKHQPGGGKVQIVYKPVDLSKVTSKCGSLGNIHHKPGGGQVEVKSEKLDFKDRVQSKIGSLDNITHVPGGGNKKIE
T1 sequence (P05067 672-711): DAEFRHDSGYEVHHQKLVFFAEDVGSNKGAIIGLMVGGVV

| Structure (SMILES) | inhibition of PHF formation, K18/Y310W, Trp fluorescence (K18/Y310W) | ranking as inhibitor, K18/ΔK280, Trp fluorescence (K18/ΔK280/Y310W) | depolymerisation activity, Aβ fibrils (Aβ1-40 fibrils) [%] | depolymerisation of K19 PHFs (K19 PHFs) |
| --- | --- | --- | --- | --- |
| COc1cccc2c1C(=O)c1c(O)c3c(c(O)c1C2=O)CC(O)(C(=O)CO)CC3OC1CC(N)C(O)C(C)O1 (centres unmarked) [Adriamycin, 10-(4-Amino-5-hydroxy-6-methyl-tetrahydro-pyran-2-yloxy)-6,8,11-trihydroxy-8-(2-hydroxyethanoyl)-1-methoxy-7,8,9,10-tetrahydro-naphthacene-5,12-dione, reference compound] | about 70% |  |  |  |
| Cc1cc(O)c2c(c1)C(=O)c1cc(O)cc(O)c1C2=O [Emodin, 1,3,8-Trihydroxy-6-methyl-anthraquinone] | about 70% |  |  |  |
| O=C1c2ccc(O)c(O)c2C(=O)c2c(O)ccc(O)c21 [PHF016, 1,2,5,8-Tetrahydroxy-anthraquinone] | 25% | worst |  |  |
| COc1cccc2c1C(=O)c1c(O)c3c(c(O)c1C2=O)CC(O)(C(C)=O)CC3OC1CC(N)C(O)C(C)O1 (centres unmarked) [Daunorubicin, 8-Acetyl-10-(4-amino-5-hydroxy-6-methyl-tetrahydro-pyran-2-yloxy)-6,8,11-trihydroxy-1-methoxy-7,8,9,10-tetrahydro-naphthacene-5,12-dione, reference compound] | about 70% |  |  |  |
| O=C(c1ccccc1)c1ccc(O)c(O)c1O [PHF005, 1-Phenyl-1-(2,3,4-trihydroxy-phenyl)-methanone] |  | best | ~50 | Nearly no effects |
